Experimental data taken from publication PMC7226869 (ACS Omega, 2020).
Read-outs that look alike come from different tables or passages of the source.

Columns and labels:
[1] = biological target: T1, New Delhi metallo-β-lactamase-1 (NDM-1) (Klebsiella pneumoniae, UniProt E9NWK5); experiment: 1H-15N HSQC NMR titration; format: binding
[2] = biological target: T1, New Delhi metallo-β-lactamase-1 (NDM-1); experiment: imipenem hydrolysis by purified NDM-1; format: biochemical
OXA-48 = OXA-48 (Klebsiella pneumoniae, UniProt Q6XEC0); experiment: carbapenemase inhibition at a single concentration; format: biochemical; conditions: read-out: % inhibition at 50 μM
KPC-2 = KPC-2 (Klebsiella pneumoniae, UniProt Q93LQ9); experiment: carbapenemase inhibition at a single concentration; format: biochemical; conditions: read-out: % inhibition at 50 μM
[3] = biological target: T1, New Delhi metallo-β-lactamase-1 (NDM-1); experiment: imipenem hydrolysis by purified NDM-1; format: biochemical; remark: listed apart in the source

Chain of OXA-48 (Q6XEC0 23-265 limits assumed): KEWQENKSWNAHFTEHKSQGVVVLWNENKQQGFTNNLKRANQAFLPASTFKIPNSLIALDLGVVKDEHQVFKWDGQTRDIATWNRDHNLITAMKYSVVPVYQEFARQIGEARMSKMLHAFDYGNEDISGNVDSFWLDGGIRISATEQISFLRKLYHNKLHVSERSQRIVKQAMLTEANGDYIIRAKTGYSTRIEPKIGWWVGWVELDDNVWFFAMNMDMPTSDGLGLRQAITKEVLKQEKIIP

With `O=c1c(O)c(-c2ccc(O)cc2O)oc2cc(O)cc(O)c12` [morin] the Kd [1] was about 300 µM.
For `O=c1c(O)c(-c2cc(O)c(O)c(O)c2)oc2cc(O)cc(O)c12` [myricetin], the IC50 [2] was 3.3 µM, the inhibition at 50 µM (OXA-48) was 90% and the inhibition at 50 µM (KPC-2) was 78%.
With `O=c1c(O)c(-c2ccc(O)c(O)c2)oc2cc(O)cc(O)c12` [quercetin] the IC50 [3] was 5 to 10 µM.
